The NIST ThermoML archive (doi:10.1021/acs.jced.9b00442)
Numbers after ± are expanded uncertainties.

conditions: 323.15 K; 100 kPa; Liquid; Concentric cylinders viscometry

Row | SMILES | viscosity [mPa·s]
1 | CC[N+](C)(CCO)CCO.O=S(=O)([N-]S(=O)(=O)C(F)(F)F)C(F)(F)F | 71.7 ± 2.9

same assay, conditions: 323.15 K; 100 kPa; Liquid; Frequency=0.0006 MHz; Alternating current cell with electrodes

Row | SMILES | electrical conductivity [S/m]
2 | C[N+](CCO)(CCO)CCO.O=S(=O)([N-]S(=O)(=O)C(F)(F)F)C(F)(F)F | 0.149 ± 0.003
3 | CC[N+](CCO)(CCO)CCO.O=S(=O)([N-]S(=O)(=O)C(F)(F)F)C(F)(F)F | 0.118 ± 0.002
4 | CCCC[N+](CCO)(CCO)CCO.O=S(=O)([N-]S(=O)(=O)C(F)(F)F)C(F)(F)F | 0.082 ± 0.002
5 | CC[N+](C)(CCO)CCO.O=S(=O)([N-]S(=O)(=O)C(F)(F)F)C(F)(F)F | 0.253 ± 0.005

same assay, conditions: 323.15 K; 100 kPa; Liquid; Vibrating tube method

Row | SMILES | mass density [kg/m3]
6 | C[N+](CCO)(CCO)CCO.O=S(=O)([N-]S(=O)(=O)C(F)(F)F)C(F)(F)F | 1544.3 ± 1.2
7 | CC[N+](CCO)(CCO)CCO.O=S(=O)([N-]S(=O)(=O)C(F)(F)F)C(F)(F)F | 1507.8 ± 1.2
8 | CCCC[N+](CCO)(CCO)CCO.O=S(=O)([N-]S(=O)(=O)C(F)(F)F)C(F)(F)F | 1435 ± 1.1
9 | CC[N+](C)(CCO)CCO.O=S(=O)([N-]S(=O)(=O)C(F)(F)F)C(F)(F)F | 1492.8 ± 1.2

same assay, conditions: 324.15 K; 100 kPa; Liquid; Vibrating tube method

Row | SMILES | mass density [kg/m3]
10 | C[N+](CCO)(CCO)CCO.O=S(=O)([N-]S(=O)(=O)C(F)(F)F)C(F)(F)F | 1543.4 ± 1.2
11 | CC[N+](CCO)(CCO)CCO.O=S(=O)([N-]S(=O)(=O)C(F)(F)F)C(F)(F)F | 1507 ± 1.2
12 | CCCC[N+](CCO)(CCO)CCO.O=S(=O)([N-]S(=O)(=O)C(F)(F)F)C(F)(F)F | 1434.1 ± 1.1
13 | CC[N+](C)(CCO)CCO.O=S(=O)([N-]S(=O)(=O)C(F)(F)F)C(F)(F)F | 1491.9 ± 1.2

same assay, conditions: 325.15 K; 100 kPa; Liquid; Vibrating tube method

Row | SMILES | mass density [kg/m3]
14 | C[N+](CCO)(CCO)CCO.O=S(=O)([N-]S(=O)(=O)C(F)(F)F)C(F)(F)F | 1542.5 ± 1.2
15 | CC[N+](CCO)(CCO)CCO.O=S(=O)([N-]S(=O)(=O)C(F)(F)F)C(F)(F)F | 1506.1 ± 1.2
16 | CCCC[N+](CCO)(CCO)CCO.O=S(=O)([N-]S(=O)(=O)C(F)(F)F)C(F)(F)F | 1433.2 ± 1.1
17 | CC[N+](C)(CCO)CCO.O=S(=O)([N-]S(=O)(=O)C(F)(F)F)C(F)(F)F | 1491 ± 1.2

same assay, conditions: 326.15 K; 100 kPa; Liquid; Vibrating tube method

Row | SMILES | mass density [kg/m3]
18 | C[N+](CCO)(CCO)CCO.O=S(=O)([N-]S(=O)(=O)C(F)(F)F)C(F)(F)F | 1541.6 ± 1.2
19 | CC[N+](CCO)(CCO)CCO.O=S(=O)([N-]S(=O)(=O)C(F)(F)F)C(F)(F)F | 1505.2 ± 1.2
20 | CCCC[N+](CCO)(CCO)CCO.O=S(=O)([N-]S(=O)(=O)C(F)(F)F)C(F)(F)F | 1432.4 ± 1.1
21 | CC[N+](C)(CCO)CCO.O=S(=O)([N-]S(=O)(=O)C(F)(F)F)C(F)(F)F | 1490.2 ± 1.2

same assay, conditions: 327.15 K; 100 kPa; Liquid; Vibrating tube method

Row | SMILES | mass density [kg/m3]
22 | C[N+](CCO)(CCO)CCO.O=S(=O)([N-]S(=O)(=O)C(F)(F)F)C(F)(F)F | 1540.7 ± 1.2
23 | CC[N+](CCO)(CCO)CCO.O=S(=O)([N-]S(=O)(=O)C(F)(F)F)C(F)(F)F | 1504.4 ± 1.2
24 | CCCC[N+](CCO)(CCO)CCO.O=S(=O)([N-]S(=O)(=O)C(F)(F)F)C(F)(F)F | 1431.5 ± 1.1
25 | CC[N+](C)(CCO)CCO.O=S(=O)([N-]S(=O)(=O)C(F)(F)F)C(F)(F)F | 1489.3 ± 1.2

same assay, conditions: 328.15 K; 100 kPa; Liquid; Concentric cylinders viscometry

Row | SMILES | viscosity [mPa·s]
26 | C[N+](CCO)(CCO)CCO.O=S(=O)([N-]S(=O)(=O)C(F)(F)F)C(F)(F)F | 95.6 ± 3.9
27 | CC[N+](CCO)(CCO)CCO.O=S(=O)([N-]S(=O)(=O)C(F)(F)F)C(F)(F)F | 122 ± 5.1
28 | CCCC[N+](CCO)(CCO)CCO.O=S(=O)([N-]S(=O)(=O)C(F)(F)F)C(F)(F)F | 137.7 ± 5.8
29 | CC[N+](C)(CCO)CCO.O=S(=O)([N-]S(=O)(=O)C(F)(F)F)C(F)(F)F | 58.1 ± 2.3

same assay, conditions: 328.15 K; 100 kPa; Liquid; Vibrating tube method

Row | SMILES | mass density [kg/m3]
30 | C[N+](CCO)(CCO)CCO.O=S(=O)([N-]S(=O)(=O)C(F)(F)F)C(F)(F)F | 1539.8 ± 1.2
31 | CC[N+](CCO)(CCO)CCO.O=S(=O)([N-]S(=O)(=O)C(F)(F)F)C(F)(F)F | 1503.5 ± 1.2
32 | CCCC[N+](CCO)(CCO)CCO.O=S(=O)([N-]S(=O)(=O)C(F)(F)F)C(F)(F)F | 1430.6 ± 1.1
33 | CC[N+](C)(CCO)CCO.O=S(=O)([N-]S(=O)(=O)C(F)(F)F)C(F)(F)F | 1488.4 ± 1.2

same assay, conditions: 329.15 K; 100 kPa; Liquid; Vibrating tube method

Row | SMILES | mass density [kg/m3]
34 | C[N+](CCO)(CCO)CCO.O=S(=O)([N-]S(=O)(=O)C(F)(F)F)C(F)(F)F | 1538.9 ± 1.2
35 | CC[N+](CCO)(CCO)CCO.O=S(=O)([N-]S(=O)(=O)C(F)(F)F)C(F)(F)F | 1502.6 ± 1.2
36 | CCCC[N+](CCO)(CCO)CCO.O=S(=O)([N-]S(=O)(=O)C(F)(F)F)C(F)(F)F | 1429.8 ± 1.1
37 | CC[N+](C)(CCO)CCO.O=S(=O)([N-]S(=O)(=O)C(F)(F)F)C(F)(F)F | 1487.5 ± 1.2

same assay, conditions: 330.15 K; 100 kPa; Liquid; Vibrating tube method

Row | SMILES | mass density [kg/m3]
38 | C[N+](CCO)(CCO)CCO.O=S(=O)([N-]S(=O)(=O)C(F)(F)F)C(F)(F)F | 1538.1 ± 1.2
39 | CC[N+](CCO)(CCO)CCO.O=S(=O)([N-]S(=O)(=O)C(F)(F)F)C(F)(F)F | 1501.8 ± 1.2
40 | CCCC[N+](CCO)(CCO)CCO.O=S(=O)([N-]S(=O)(=O)C(F)(F)F)C(F)(F)F | 1428.9 ± 1.1
41 | CC[N+](C)(CCO)CCO.O=S(=O)([N-]S(=O)(=O)C(F)(F)F)C(F)(F)F | 1486.7 ± 1.2

same assay, conditions: 331.15 K; 100 kPa; Liquid; Vibrating tube method

Row | SMILES | mass density [kg/m3]
42 | C[N+](CCO)(CCO)CCO.O=S(=O)([N-]S(=O)(=O)C(F)(F)F)C(F)(F)F | 1537.2 ± 1.2
43 | CC[N+](CCO)(CCO)CCO.O=S(=O)([N-]S(=O)(=O)C(F)(F)F)C(F)(F)F | 1500.9 ± 1.2
44 | CCCC[N+](CCO)(CCO)CCO.O=S(=O)([N-]S(=O)(=O)C(F)(F)F)C(F)(F)F | 1428.1 ± 1.1
45 | CC[N+](C)(CCO)CCO.O=S(=O)([N-]S(=O)(=O)C(F)(F)F)C(F)(F)F | 1485.8 ± 1.2

same assay, conditions: 332.15 K; 100 kPa; Liquid; Vibrating tube method

Row | SMILES | mass density [kg/m3]
46 | C[N+](CCO)(CCO)CCO.O=S(=O)([N-]S(=O)(=O)C(F)(F)F)C(F)(F)F | 1536.3 ± 1.2
47 | CC[N+](CCO)(CCO)CCO.O=S(=O)([N-]S(=O)(=O)C(F)(F)F)C(F)(F)F | 1500 ± 1.2
48 | CCCC[N+](CCO)(CCO)CCO.O=S(=O)([N-]S(=O)(=O)C(F)(F)F)C(F)(F)F | 1427.2 ± 1.1
49 | CC[N+](C)(CCO)CCO.O=S(=O)([N-]S(=O)(=O)C(F)(F)F)C(F)(F)F | 1484.9 ± 1.2

same assay, conditions: 333.15 K; 100 kPa; Liquid; Concentric cylinders viscometry

Row | SMILES | viscosity [mPa·s]
50 | C[N+](CCO)(CCO)CCO.O=S(=O)([N-]S(=O)(=O)C(F)(F)F)C(F)(F)F | 76.5 ± 3.1
